Assay results reported in patent US4108991A, “N-aminosulfenyl derivatives of aldicarb” (priority 1976, dated 1978).

How the values were obtained:
[1] = tested on: Pea aphid; assay: Initial contact activity, leaf dip, pea aphid; assay type: in vivo, Acyrthosiphon pisum [Harris]; details: Acyrthosiphon pisum, foliar, 48 h, initial, PA, 48 hours, read-out: Percent Kill
Procedure: (§1) Initial Contact Activity: One half gram of test compound was dissolved in 40 ml of acetone and this solution was dispersed in 360 ml of water containing one drop of isooctylphenyl polyethoxyethanol. Aliquots of this solution, which corresponds to 1250 ppm of active ingredient, were diluted with an appropriate amount of water to provide solutions containing various concentrations of active ingredient. Test organisms and techniques were as follows: The activity against the Mexican bean beetle (Epilachna varivestis Muls.) and the southern armyworm (Spodoptera eridania [Cram.]) was evaluated by dipping the leaves of pinto bean plants into the test solution and infesting the leaves with the appropriate immature-form insects when the foiliage had dried; the activity against the pea aphid (Acyrthosiphon pisum [Harris]) was evaluated on broad bean plants whose leaves were dipped before infestation with adult aphids; the activity against two-sotted spider mites (Tetranychus urticae Koch) was evaluated on pinto bean plants whose leaves were dipped after infestation with adult mites; the activity against the milkweed bug (Oncopeltus fasciatus [Dallas]), and the plum curculio (Conotrachelus nenuphar [Herbst]) was evaluated by spraying the test solutions into glass dishes or jars containing the adult insects; the activity against the confused flour beetle (Tribolium confusum duVal) was evaluated by introducing the insects into glass dishes which had been previously sprayed with test solution and allowed to dry. All organisms in the test were maintained in a holding room at 80° F and 50% relative humidity for an exposure period of 48 hours. At the end of this time, the dead and living insects or mites were counted, and the percent kill was calculated.

[2] = tested on: Pea aphid; assay: Residual (7-day) contact activity, pea aphid; assay type: in vivo, Acyrthosiphon pisum [Harris]; details: Acyrthosiphon pisum, 168 h
Procedure: as §1
(§2) Residual Contact Activity: The residual contact activity of the compounds was determined on the same organisms using the techniques described above, except that in each case the treated surface was allowed to dry and was exposed to normal light and air for seven days before introduction of the mites or insects.

[3] = tested on: Mexican bean beetle; assay: Systemic activity, soil-watering, Mexican bean beetle; assay type: in vivo, Epilachna varivestis Muls.; details: Epilachna varivestis, 48 h, systemic, BB, read-out: Percent Kill
Procedure: as §1
(§3) Systemic Activity: Systemic activity was measured using a soil-watering technique. Test organisms were Mexican bean beetle, southern armyworm, pea aphid, and mites on plants as described above in this Example. With appropriate precautions to avoid contact of the solution with the test plant surfaces, 25 ml of a test solution, prepared as above to contain the desired amount of active ingredient, were poured evenly over the surface of the soil in which the plant was growing. The treated plants were maintained under normal growing conditions for three days to permit translocation of the toxicant, after which the leaves were infested. Two days after infestation, counts of living and dead insects were made.

[4] = tested on: Plum curculio; assay: Residual (7-day) contact activity, plum curculio; assay type: in vivo, Conotrachelus nenuphar [Herbst]; details: Conotrachelus nenuphar, 168 h, read-out: Percent Kill
Procedure: as §1, §2

[5] = tested on: Southern armyworm; assay: Systemic activity, soil-watering, southern armyworm; assay type: in vivo, Spodoptera eridania [Cram.]; details: Spodoptera eridania, 48 h, systemic, AW, read-out: Percent Kill
Procedure: as §1, §3

[6] = tested on: Two-spotted spider mite; assay: Systemic activity, soil-watering, two-spotted spider mite; assay type: in vivo, Tetranychus urticae Koch; details: Tetranychus urticae, 48 h, systemic, SM, read-out: Percent Kill
Procedure: as §1, §3

[7] = tested on: Pea aphid; assay: Systemic activity, soil-watering, pea aphid; assay type: in vivo, Acyrthosiphon pisum [Harris]; details: Acyrthosiphon pisum, 48 h, systemic, PA, read-out: Percent Kill
Procedure: as §1, §3

[8] = tested on: Milkweed bug; assay: Residual (7-day) contact activity, milkweed bug; assay type: in vivo, Oncopeltus fasciatus [Dallas]; details: Oncopeltus fasciatus, 168 h
Procedure: as §1, §2

[9] = tested on: Granary Weevil; assay: Initial contact activity, granary weevil; assay type: in vivo; details: Sitophilus granarius, 48 h, initial, GW, 48 hours, read-out: Percent Kill
[10] = tested on: Southern armyworm; assay: Initial contact activity, leaf dip, southern armyworm; assay type: in vivo, Spodoptera eridania [Cram.]; details: Spodoptera eridania, foliar, 48 h, initial, AW, 48 hours, read-out: Percent Kill
Procedure: as §1

[11] = tested on: Two-spotted spider mite; assay: Residual (7-day) contact activity, two-spotted spider mite; assay type: in vivo, Tetranychus urticae Koch; details: Tetranychus urticae, 168 h
Procedure: as §1, §2

CSC(C)(C)C=NOC(=O)N(C)SN(C)C [Example IV, 2-Methyl-2-(methylthio)propanal O-[(dimethylaminosulfenyl)-(methyl)carbamoyl]oxime]
10%: mortality at 312 ppm ([2]; residual 7-day, PA, 312 PPM, read-out: Percent Kill)
18%: mortality at 39 ppm ([11]; residual 7-day, SM, 39 PPM, read-out: Percent Kill)
12%: mortality at 1250 ppm ([10]; 1250 PPM)
95%: mortality at 156 ppm ([1]; 156 PPM)
52%: mortality at 156 ppm ([11]; residual 7-day, SM, 156 PPM, read-out: Percent Kill)
5%: mortality at 39 ppm ([1]; 39 PPM) | mortality at 625 ppm ([2]; read-out: Percent Kill, residual 7-day, PA, 625 PPM) | mortality at 1250 ppm ([2]; residual 7-day, PA, 1250 PPM, read-out: Percent Kill) | mortality at 39 ppm ([9]; 39 PPM)
100%: mortality at 1250 ppm ([1]; 1250 PPM) | mortality at 39 ppm ([3]; 39 PPM) | mortality at 312 ppm ([3]; 312 PPM) | mortality at 312 ppm ([5]; 312 PPM) | mortality at 5 ppm ([6]; 5 PPM) | mortality at 39 ppm ([6]; 39 PPM) | mortality at 312 ppm ([6]; 312 PPM) | mortality at 5 ppm ([7]; 5 PPM) | mortality at 10 ppm ([7]; 10 PPM) | mortality at 312 ppm ([7]; 312 PPM) | mortality at 625 ppm ([8]; read-out: Percent Kill, residual 7-day, MWB, 625 PPM) | mortality at 1250 ppm ([8]; residual 7-day, MWB, 1250 PPM, read-out: Percent Kill) | mortality at 1250 ppm ([9]; 1250 PPM) | mortality at 1250 ppm ([11]; residual 7-day, SM, 1250 PPM, read-out: Percent Kill)
50%: mortality at 156 ppm ([9]; 156 PPM)
0%: mortality at 20 ppm ([1]; 20 PPM) | mortality at 625 ppm [4] | mortality at 1250 ppm ([4]; residual 7-day, PC, 1250 PPM) | mortality at 39 ppm ([5]; 39 PPM) | mortality at 20 ppm ([9]; 20 PPM) | mortality at 156 ppm ([10]; 156 PPM) | mortality at 312 ppm ([10]; 312 PPM) | mortality at 625 ppm ([10]; 625 PPM) | mortality at 625 ppm ([11]; read-out: Percent Kill, residual 7-day, SM, 625 PPM)
65%: mortality at 312 ppm ([8]; residual 7-day, MWB, 312 PPM, read-out: Percent Kill)
